Test results published in a melting point compilation (Tetko et al.; mined from patent text by program, amines drawn as free bases though some values may be those of a salt).

For `O=C1c2ccccc2C(=O)N1CCCCc1ccc(S(=O)(=O)Cl)cc1`, the melting point was 122 to 125 °C.
In the case of `CC(C)(C)OC(=O)Nc1nc2cc(NC(=O)C(=O)N3CCC(Cc4ccccc4)CC3)ccc2[nH]1`, the melting point is reported as 192 °C.
Work on `N#Cc1ccc(Oc2ccc([N+](=O)[O-])c(Oc3ccccc3)c2Cl)cc1` yielded a melting point of 140 to 142 °C.
`CCOC(=O)C1(C(=O)N(Cc2ccccc2)Cc2ccccc2)CC(=O)N(Cc2ccccc2)C1` (stereo not given) gave a melting point of 112 to 115 °C.
`Cc1oc(-c2ccco2)nc1COc1ccc(COc2nn(Cc3ccccc3)cc2CO)cc1Cl` gave a melting point of 119 to 120 °C.
`CCCc1nc(C)n2nc(S)nc2c1Cc1ccc([N+](=O)[O-])cc1` showed a melting point of 210 °C.
Molecule `CC(C)(C)c1cc(C(=O)Oc2ccc(C(=O)O)cc2)cc(C(C)(C)C)c1O` has a melting point of 223 to 224 °C.
`CCCNC(=O)NCCCCCN1CCC(CNC(=O)c2cc(Cl)c(N)cc2OC)CC1` showed a melting point of 144 to 147 °C.
Molecule `O=c1c(Cl)c(Cl)cnn1COCc1ccccc1` has a melting point of 60 to 64 °C.
Molecule `N=C(Nc1ccc(F)cc1)Nc1nc(-c2ccccc2)cs1` has a melting point of 156 to 158 °C.
For `CNC(=O)c1cc(NC(=O)c2ccc(C)c(Nc3nccc(-c4cccnc4)n3)c2)cc(N2CCOCC2)c1`, the melting point was 153 to 156 °C.
In the case of `CC1(C)C(c2ccc(S(C)(=O)=O)cc2)=C(c2ccccc2)C1F` (stereo not given), the melting point is reported as 79 to 81.5 °C.
Work on `O=C1NC(NCC2CC2)=N/C1=C\c1c[nH]c2ncc(F)cc12` yielded a melting point of 312 °C.
Work on `NS(=O)(=O)c1ccc(-c2noc(-c3cnc4ccc(-c5ccc(C(F)(F)F)cc5)cn34)n2)cc1` yielded a melting point of 288 °C.
`NC1=C(NC=O)C(=O)N2CCN=C2N1` showed a melting point of 268 °C.
In the case of `CCCCN(c1nc(NCC(=O)OCC)nc(N(CCCC)C2CC(C)(C)NC(C)(C)C2)n1)C1CC(C)(C)NC(C)(C)C1`, the melting point is reported as 40 °C.
Work on `CN1Cc2ccccc2C(=O)c2cc(CC(=O)O)cc(Cl)c21` yielded a melting point of 168 to 170 °C.
Molecule `C=CCOc1cc(C)ccc1[N+](=O)[O-]` has a melting point of 30 to 32 °C.
`CCOC(=O)CCCCC(=O)c1ccc2cc(O)ccc2c1` showed a melting point of 139 to 142 °C.
With `CC(=O)c1ccc(C2=CCCCC2)cc1` the melting point was 76 to 77 °C.
For `Cc1nc2c(C(F)(F)F)cccc2c(-c2ccccc2)c1C(=O)c1ccccc1`, the melting point was 175 to 177 °C.
`O=C(NO)c1ccc(CNC(=O)c2[nH]c(-c3cccs3)cc2-c2ccc(O)cc2)cc1` showed a melting point of 171 to 172 °C.
Work on `CCOC(=O)CC[C@H](NC(=O)c1ccc(Br)cc1)C(=O)OCC` yielded a melting point of 82.5 to 83.5 °C.
Work on `O=C(c1c(Cl)cccc1Cl)n1cnc(-c2ccccc2)c1` yielded a melting point of 135 to 136 °C.
With `NS(=O)(=O)c1ccc(-c2cn(-c3nc(-c4cccc(Cl)c4)cc(C(F)(F)F)n3)cn2)s1` the melting point was 280 °C.
Molecule `CCCc1nc(NN)nc(O)c1Cc1ccc(-c2ccccc2C#N)cc1` has a melting point of 191 °C.
For `CC(=O)N1CCN(C(=O)C2(C#N)Nc3cc(C)c(-c4ccccc4)c(N4CC[C@H](N(C)C)C4)c3O2)CC1` (stereo not given in full), the melting point was 102 to 105 °C.
With `CC(C#N)=C1CCN(c2ccc(N3C[C@H](CNC(=O)CC#N)OC3=O)cc2F)CC1` the melting point was 194 to 196 °C.
With `CC(C)(O)C1CCN(Cc2ccc(C#CC(=O)Nc3ccc(-c4ccc(Cl)cc4)cc3)cc2)CC1` the melting point was 194 to 195 °C.
Molecule `Cc1ccc2c(c1)OCc1nc(C(=O)O)cn1-2` has a melting point of 278 to 279 °C.
Molecule `Oc1ccc(-c2cnc(NC(=S)Cc3ccccc3)c(Cc3ccccc3)n2)cc1` has a melting point of 195 to 198 °C.
Work on `O=C(O)c1cn(C2CC2)c2c(F)c(N3CC(C(=O)O)C3)c(F)cc2c1=O` yielded a melting point of 251 to 255 °C.
`CCOC(=O)c1cnc2c(c(C)nn2CC)c1Cl` showed a melting point of 70 to 74 °C.
`O=C(O)c1ccc(C2CCNCC2)cc1` gave a melting point greater than 270 °C.
In the case of `CCOC(=O)c1nn(-c2ccc(N(C)C)cc2)c(=O)c2c(N)scc12`, the melting point is reported as 211 to 213 °C.
`CCCCCCCCNC(=O)N=C(NC(=O)NCC)OC` showed a melting point of 88 to 90 °C.
For `COc1cc(C=O)c2c(c1OC)OCC=C2`, the melting point was 82 to 82.5 °C.
Molecule `ClCCCOc1ccc(-c2cnc(CSCCOc3ccccc3)o2)cc1` has a melting point of 71 to 73 °C.
`CNC(=O)C(C)n1c(-c2ccc(Cl)cc2)nc2cccnc21` (stereo not given) showed a melting point of 217 to 218 °C.
`COc1ccc(-c2nsc(SN)n2)cc1` showed a melting point of 136 to 139 °C.
With `COC(=O)c1cccc2nc(Cl)n(Cc3ccc(-c4ccccc4C#N)cc3)c12` the melting point was 154 to 157 °C.
`O=C1NCCSC1=NO` gave a melting point of 233 to 235 °C.
With `CC(C)COc1c(C2CCN(CCCCNC(=O)c3ccc(-c4ccc(C(F)(F)F)cc4)cc3)CC2)ccc2c1CCCC2` the melting point was 165 °C.
In the case of `COC(C)c1cccc2oc(C(=O)O)c(C)c12` (stereo not given), the melting point is reported as 113 to 115 °C.
For `O=C(O)CC(=O)N1CCSCC1`, the melting point was 119 to 120 °C.
With `CC(=O)c1ccc(SCCOc2ccc3ccccc3c2)cc1` the melting point was 151 to 152 °C.
For `COC(=O)NNC(=S)CC(C)(C)C`, the melting point was 72.5 to 73 °C.
`NCc1cccc(CNc2ncc3ncnc(Nc4ccc(F)c(Cl)c4)c3n2)c1` gave a melting point of 179 to 182 °C.
`COc1ccc(-c2nc3cccnc3[nH]2)cc1NS(=O)(=O)c1cccs1` gave a melting point of 252 to 254 °C.
`CCCCNC(=O)[C@@H](C[C@H](O)[C@@H](N)C[C@H](Cc1ccc(OC)c(CCOCOC)c1)C(C)C)C(C)C` showed a melting point of 56 to 58 °C.
For `O=S(=O)(CCO)CCC(c1cc(F)ccc1F)S(=O)(=O)c1ccc(Cl)cc1` (stereo not given), the melting point was 111 to 113 °C.
For `Cc1cc(OCCN2CCOCC2)nn1-c1ccc2c(O)cccc2c1`, the melting point was less than 70 °C.
With `CC1(C)CC(C)(c2ccc(Oc3cccc([N+](=O)[O-])c3)cc2)c2cc(Oc3cccc([N+](=O)[O-])c3)ccc21` (stereo not given) the melting point was 90 to 92 °C.
`COc1ccnc(CSc2nc3cc4c(cc3[nH]2)OCO4)c1C` showed a melting point of 215 to 220 °C.
For `CCn1ccc(=O)c(O)c1C`, the melting point was 204 to 205 °C.
With `CC(COc1ccc(CC2SC(=O)NC2=O)cc1)NCC(O)c1cccc(Cl)c1` (stereo not given) the melting point was 100 to 125 °C.
In the case of `CCNC(=NC#N)NCC(=O)N(C)c1ccc(Cl)c(COc2cccn3c(Br)c(C)nc23)c1Cl`, the melting point is reported as greater than 250 °C.
`CCCNc1ncnc2c1ncn2Cc1ccc(OC)c(OC)c1` gave a melting point of 117 to 120 °C.
In the case of `COc1ccc(N2CCN(n3ccnc3)CC2)cc1`, the melting point is reported as 159 °C.
`Oc1ccc(C(=S)c2ccc(-c3ccccc3)cc2)c(O)c1` gave a melting point of 114 to 116 °C.
`O=C1CCc2cc(NCC(=O)N3CCC(Cc4ccccc4)CC3)ccc2N1` gave a melting point of 184 to 187 °C.
`O=C(O)c1cccc(NC(=O)C(CS)Cc2noc3ccccc23)c1` (stereo not given) showed a melting point of 207 to 209 °C.
`OC[C@@H](O)CCc1ccc2ccccc2c1O` gave a melting point of 105 to 108 °C.
In the case of `CCOCc1nc2c(N)nc3cccnc3c2n1CCCC(=O)N1CCOCC1`, the melting point is reported as 156 to 157 °C.
With `C[Si](C)(C)OC(Cn1ccnc1)(Cn1ccnc1)c1ccc(F)cc1F` the melting point was 134 to 136 °C.
In the case of `CC(=O)NCc1cccc(-c2csc(N=C(N)N)n2)n1`, the melting point is reported as 198 to 200 °C.
For `Cn1nc(-c2c(F)cccc2Cl)nc1-c1ccc(Oc2ccccc2)cc1Cl`, the melting point was 135 to 140 °C.
`CC(C)(C#N)Cc1ccc2cc(CC(C)(C)C#N)ccc2c1` gave a melting point of 178 to 180 °C.
With `CCOC(=O)N1CCc2c(cnc3nc(/C=C4/C(=O)N5C(C(=O)O)=CS[C@H]45)nn23)C1` the melting point was greater than 250 °C.
In the case of `Cc1ccc(S(=O)(=O)N(C)SSN(C)S(=O)(=O)c2ccc(C)cc2)cc1`, the melting point is reported as 90 to 94 °C.
For `CC(CNc1ccc(Cl)cc1[N+](=O)[O-])SC#N` (stereo not given), the melting point was 69 to 70 °C.
`CCN(CC)CCN(C)C1(c2ccccc2Cl)C(=O)Nc2ccc(Cl)cc21` (stereo not given) gave a melting point of 140 °C.
In the case of `CCC1CC2C3CCC4=CC(=O)CCC4C3CCC2(C)C1OC(=O)COC(C)=O` (stereo not given), the melting point is reported as 98 to 100 °C.
For `CCOC(=O)c1c(C)nc2c(cnn2CCOC)c1N`, the melting point was 82 to 85 °C.
In the case of `OCc1cc(O)cc2cc(-c3ccc(O)cc3)oc12`, the melting point is reported as 258 to 260 °C.
Molecule `FC(F)(F)C1(c2cc(Cl)cc(Cl)c2)CC(c2ccc(-n3cccn3)cc2)=NO1` (stereo not given) has a melting point of 174 to 175 °C.
With `O=C1NCN(c2ccccc2)C12CCN(CCCn1cnc3ccccc31)CC2` the melting point was 191 °C.
In the case of `COc1ccccc1N1CCN(C(=O)N(C)c2nc(C)c(C)nc2OC)CC1`, the melting point is reported as 140 to 142 °C.
Work on `CCC(=O)c1cc(C2(c3cccc(O)c3)N=C(N)N(C)C2=O)cn1CC` (stereo not given) yielded a melting point of 101 °C.
With `CC(C)(C)OC(=O)NCCCCNc1c([N+](=O)[O-])cnc2cccnc12` the melting point was 137 to 138 °C.
Work on `CCC12CCC(NC(=O)C=CC(=O)OC)C3Oc4c(O)ccc5c4C31CCN(CC1CC1)C2C5` (stereo not given) yielded a melting point of 233 to 236 °C.
Molecule `CC(=O)OCc1c(Br)cnc2c(NC(=O)c3c(Cl)cccc3Cl)cccc12` has a melting point of 201 to 202 °C.
`COC(=O)c1cc(C)nc(OC)n1` showed a melting point of 101 to 103 °C.
With `COc1cc2[nH]c3cc(OC)c(OC)cc3c2cc1OC` the melting point was 232 to 233 °C.
In the case of `COC(=O)c1nc(-c2ccc(Cl)cc2)nc(NCc2ccco2)c1Cl`, the melting point is reported as 132 to 134 °C.
For `CN1CCC(=C2c3ccc(Cl)cc3CCn3ccnc32)CC1`, the melting point was 187 °C.
`C#CCNC(=NCCSCc1csc(NC(=N)N)n1)NC#N` gave a melting point of 146 to 148 °C.
In the case of `CCN(CC)C(=O)c1ccccc1-c1ccc(F)cc1`, the melting point is reported as 57 to 59 °C.
In the case of `CN(c1ccc(O)cc1)c1nc2cc(Cl)c(Cl)cc2nc1Cl`, the melting point is reported as 176 °C.
Molecule `CC(Cl)CCC(=O)c1ccccc1` (stereo not given) has a melting point of 28 to 30 °C.
With `COC(=O)c1cc(C)c(C(=O)OC)c(OC)c1` the melting point was 98 to 99 °C.
With `Nc1ccncc1Nc1ccc2cn[nH]c2c1` the melting point was 214 to 216 °C.
Molecule `COc1cc2c(cc1OC)CN(CCCSc1ccc(NC(=O)c3cccc4c(=O)c5cccc(F)c5[nH]c34)cc1)CC2` has a melting point of 162 °C.
Molecule `COCCOc1ccc(N=Nc2cc(S(=O)(=O)N3CCCC3)c(O)c3cccc(NS(C)(=O)=O)c23)cc1S(=O)(=O)Cl` has a melting point of 184 to 187 °C.
Molecule `CC(=O)OCC(C)(C)C(Cl)CC(Cl)(Cl)Cl` (stereo not given) has a melting point of 56 to 58 °C.
Work on `O=c1[nH]nc2n1-c1ccccc1OC2` yielded a melting point of 198 °C.
Molecule `Cc1nc2cccc(OCC(C)(C)C(=O)NC3CCC3)c2c(N)c1C(=O)O` has a melting point of 183 to 187 °C.
In the case of `CCN(CC1CCN(C(=O)NC)CC1)C(C)Cc1ccc(OC)cc1` (stereo not given), the melting point is reported as 97 to 98 °C.
With `CCn1ccc(-c2sc(NC(=O)c3ccncc3)nc2-c2ccco2)cc1=O` the melting point was 245 to 248 °C.
`COc1ccc(N2CCN(c3ccc(NC4=NC(C)(C)CS4)cc3)CC2)cc1` gave a melting point of 232 °C.
